In the NIST ThermoML archive (doi:10.1021/je049807n):

Columns and labels:
[1] = for surface tension liquid-gas: Pendant drop shape; for mass density: 101.33 kPa, Liquid
[2] = xn = mol fraction of the nth substance listed; details: 298.15 K; for surface tension liquid-gas: Pendant drop shape; for mass density: 101.3 kPa, Liquid

Cc1ccc(C)c(C)c1 [1,2,4-trimethylbenzene]
[1], 298.15 K
Details | mass density [kg/m3] | surface tension liquid-gas [mN/m]
– | 871.64 | 29.25

Cc1ccc(C)c(C)c1 [1,2,4-trimethylbenzene] + CC(C)(C)O
[2]
Details | mass density [kg/m3] | surface tension liquid-gas [mN/m]
x2 = 0.0498 | 867.42 | –
x2 = 0.1 | 863.45 | 28.12
x2 = 0.1496 | 859.56 | –
x2 = 0.2007 | 855.56 | 27
x2 = 0.2495 | 851.7 | –
x2 = 0.3001 | 847.58 | 25.92
x2 = 0.351 | 843.33 | –
x2 = 0.4002 | 839.16 | 24.93
x2 = 0.4496 | 834.81 | –
x2 = 0.5005 | 830.25 | 24.06
x2 = 0.5494 | 825.78 | –
x2 = 0.6006 | 821.1 | 23.23
x2 = 0.6502 | 816.48 | –
x2 = 0.6991 | 811.94 | 22.46
x2 = 0.7491 | 807.12 | –
x2 = 0.7993 | 802.21 | 21.7
x2 = 0.85 | 797.46 | –
x2 = 0.9003 | 791.86 | 20.96
x2 = 0.9499 | 786.65 | –

Cc1ccc(C)c(C)c1 [1,2,4-trimethylbenzene] + CC(C)CO
[2]
Details | mass density [kg/m3] | surface tension liquid-gas [mN/m]
x2 = 0.0509 | 868.47 | –
x2 = 0.1004 | 865.43 | 28.42
x2 = 0.153 | 862.28 | –
x2 = 0.2018 | 859.33 | 27.54
x2 = 0.249 | 856.45 | –
x2 = 0.3002 | 853.23 | 26.7
x2 = 0.3487 | 850.09 | –
x2 = 0.3996 | 846.71 | 25.95
x2 = 0.4494 | 843.33 | –
x2 = 0.4995 | 839.86 | 25.29
x2 = 0.5488 | 836.34 | –
x2 = 0.6002 | 832.59 | 24.72
x2 = 0.6508 | 828.75 | –
x2 = 0.6989 | 824.99 | 24.16
x2 = 0.7484 | 820.99 | –
x2 = 0.8002 | 816.62 | 23.6
x2 = 0.8506 | 812.2 | –
x2 = 0.8984 | 807.85 | 22.98
x2 = 0.9496 | 802.94 | –

Cc1ccc(C)c(C)c1 [1,2,4-trimethylbenzene] + CCC(C)O
[2]
Details | mass density [kg/m3] | surface tension liquid-gas [mN/m]
x2 = 0.0497 | 868.48 | –
x2 = 0.1008 | 865.35 | 28.58
x2 = 0.1486 | 862.53 | –
x2 = 0.201 | 859.43 | 27.94
x2 = 0.2507 | 856.46 | –
x2 = 0.2985 | 853.6 | 27.32
x2 = 0.3492 | 850.47 | –
x2 = 0.4008 | 847.25 | 26.71
x2 = 0.4506 | 844.12 | –
x2 = 0.4997 | 840.93 | 26.15
x2 = 0.5486 | 837.68 | –
x2 = 0.6008 | 834.12 | 25.59
x2 = 0.6505 | 830.64 | –
x2 = 0.6994 | 827.12 | 25.07
x2 = 0.7503 | 823.25 | –
x2 = 0.7999 | 819.39 | 24.56
x2 = 0.8496 | 815.42 | –
x2 = 0.9002 | 811.21 | 24.02
x2 = 0.9489 | 806.96 | –

Cc1ccc(C)c(C)c1 [1,2,4-trimethylbenzene] + CCCCO
[2]
Details | mass density [kg/m3] | surface tension liquid-gas [mN/m]
x2 = 0.0499 | 869.1 | –
x2 = 0.1013 | 866.38 | 28.81
x2 = 0.1492 | 863.89 | –
x2 = 0.2002 | 861.22 | 28.42
x2 = 0.2499 | 858.58 | –
x2 = 0.2992 | 855.92 | 28.04
x2 = 0.3503 | 853.09 | –
x2 = 0.4009 | 850.22 | 27.61
x2 = 0.4491 | 847.4 | –
x2 = 0.5012 | 844.25 | 27.15
x2 = 0.5498 | 841.19 | –
x2 = 0.5985 | 838.02 | 26.65
x2 = 0.6501 | 834.53 | –
x2 = 0.6987 | 831.1 | 26.08
x2 = 0.7499 | 827.34 | –
x2 = 0.8001 | 823.46 | 25.49
x2 = 0.8501 | 819.4 | –
x2 = 0.9002 | 815.1 | 24.86
x2 = 0.9503 | 810.56 | –

Cc1cc(C)cc(C)c1 [1,3,5-trimethylbenzene]
[1], 298.15 K
Details | mass density [kg/m3] | surface tension liquid-gas [mN/m]
– | 861.03 | 28.09

Cc1cc(C)cc(C)c1 [1,3,5-trimethylbenzene] + CC(C)(C)O
[2]
Details | mass density [kg/m3] | surface tension liquid-gas [mN/m]
x2 = 0.0502 | 857.2 | –
x2 = 0.1015 | 853.43 | 27.18
x2 = 0.1482 | 850.08 | –
x2 = 0.2007 | 846.28 | 26.24
x2 = 0.2509 | 842.63 | –
x2 = 0.2995 | 839.02 | 25.35
x2 = 0.3484 | 835.31 | –
x2 = 0.3995 | 831.37 | 24.51
x2 = 0.449 | 827.48 | –
x2 = 0.4992 | 823.4 | 23.75
x2 = 0.5483 | 819.43 | –
x2 = 0.6005 | 815.1 | 23.02
x2 = 0.6502 | 810.91 | –
x2 = 0.6987 | 806.81 | 22.32
x2 = 0.75 | 802.48 | –
x2 = 0.7995 | 798.32 | 21.61
x2 = 0.8501 | 793.99 | –
x2 = 0.9002 | 789.58 | 20.86
x2 = 0.9509 | 785.25 | –

Cc1cc(C)cc(C)c1 [1,3,5-trimethylbenzene] + CC(C)CO
[2]
Details | mass density [kg/m3] | surface tension liquid-gas [mN/m]
x2 = 0.0512 | 858.13 | –
x2 = 0.1028 | 855.39 | 27.65
x2 = 0.1517 | 852.81 | –
x2 = 0.1994 | 850.26 | 27.21
x2 = 0.2514 | 847.49 | –
x2 = 0.3006 | 844.78 | 26.67
x2 = 0.3529 | 841.86 | –
x2 = 0.4019 | 839.03 | 26.09
x2 = 0.4494 | 836.25 | –
x2 = 0.4995 | 833.24 | 25.51
x2 = 0.548 | 830.3 | –
x2 = 0.6002 | 827.02 | 24.88
x2 = 0.6495 | 823.78 | –
x2 = 0.699 | 820.47 | 24.25
x2 = 0.7501 | 816.96 | –
x2 = 0.7998 | 813.38 | 23.61
x2 = 0.8504 | 809.65 | –
x2 = 0.9006 | 805.81 | 22.97
x2 = 0.9485 | 802.06 | –

Cc1cc(C)cc(C)c1 [1,3,5-trimethylbenzene] + CCC(C)O
[2]
Details | mass density [kg/m3] | surface tension liquid-gas [mN/m]
x2 = 0.0508 | 858.12 | –
x2 = 0.101 | 855.38 | 27.77
x2 = 0.1511 | 852.75 | –
x2 = 0.2007 | 850.14 | 27.36
x2 = 0.25 | 847.61 | –
x2 = 0.2986 | 845.03 | 26.94
x2 = 0.3488 | 842.36 | –
x2 = 0.4007 | 839.55 | 26.47
x2 = 0.4495 | 836.88 | –
x2 = 0.5017 | 833.96 | 25.99
x2 = 0.5484 | 831.33 | –
x2 = 0.6004 | 828.33 | 25.49
x2 = 0.6508 | 825.34 | –
x2 = 0.6991 | 822.4 | 24.98
x2 = 0.7496 | 819.25 | –
x2 = 0.8009 | 816.01 | 24.45
x2 = 0.8504 | 812.75 | –
x2 = 0.9002 | 809.42 | 23.94
x2 = 0.9505 | 805.99 | –

Cc1cc(C)cc(C)c1 [1,3,5-trimethylbenzene] + CCCCO
[2]
Details | mass density [kg/m3] | surface tension liquid-gas [mN/m]
x2 = 0.0493 | 858.72 | –
x2 = 0.1006 | 856.4 | 27.92
x2 = 0.1512 | 854.14 | –
x2 = 0.2011 | 851.93 | 27.65
x2 = 0.2514 | 849.67 | –
x2 = 0.3002 | 847.43 | 27.33
x2 = 0.3487 | 845.16 | –
x2 = 0.4003 | 842.68 | 26.91
x2 = 0.4535 | 840.04 | –
x2 = 0.5001 | 837.66 | 26.46
x2 = 0.5484 | 835.11 | –
x2 = 0.6005 | 832.26 | 25.99
x2 = 0.65 | 829.43 | –
x2 = 0.6993 | 826.54 | 25.53
x2 = 0.7497 | 823.44 | –
x2 = 0.7999 | 820.23 | 25.05
x2 = 0.85 | 816.86 | –
x2 = 0.901 | 813.3 | 24.58
x2 = 0.9506 | 809.67 | –

CC(C)CO [2-methyl-1-propanol]
[1], 298.15 K
Details | mass density [kg/m3] | surface tension liquid-gas [mN/m]
– | 797.83 | 22.3

CC(C)(C)O [2-methylpropan-2-ol]
[1], 298.15 K
Details | mass density [kg/m3] | surface tension liquid-gas [mN/m]
– | 780.85 | 20.13

CCCCO [butan-1-ol]
[1], 298.15 K
Details | mass density [kg/m3] | surface tension liquid-gas [mN/m]
– | 805.8 | 24.18

CCC(C)O (configuration not stated) [butan-2-ol]
[1]
Details | mass density [kg/m3] | surface tension liquid-gas [mN/m]
298.15 K | 802.34 | 23.46
303.15 K | – | 22.14
